Here are results for 2 substances from US4885277A, “Anticoagulant therapy” (Oklahoma Medical Research Foundation, priority 1987, dated 1989).

This assay concerns endothelial cellular receptors for Factor IX (cultured bovine aortic endothelial cells). Kind of assay: Competitive binding of [125I]-Factor IX to cultured bovine aortic endothelial cells. The settings on record: up to millimolar amounts of peptide. Here is the method: The purified peptides were tested for their ability to block the binding of bovine Factor IX and IXa to cultured bovine aortic endothelial cells. Bovine Factor IX and IXa for these studies were prepared and radioiodinated (using Na^125 I and the solid state lactoperoxidase technique) using methods described by Stern, et al. (J. Biol. Chem. 260, pp. 6717-6722 [1985]). Bovine aortic endothelial cells were obtained from the aortae of newborn calves as described by Stern, et al. (Proc. Natl. Acad. Sci. U.S.A., 80, pp. 4119-4123 [1983]). These endothelial cells were grown to confluence (1.3×10^5 cells/cm^2) in culture dishes. Binding assays were carried out by incubating either ^125 I-Factor IX or ^125 I-Factor IXa with endothelial cell monolayers in the presence of varying concentrations of one of the peptides. The buffer used in these experiments was Minimal Essential Medium containing 0.5 mg/ml transferring, and the incubation time was 4-5 hours at 4° C. At the end of the incubation period, the cultures were washed to remove unbound material. Then, specifically bound [^125 I]-Factor IX or [^125 I]-Factor IXa was eluted during exposure to EDTA-containing buffer as described by Stern, et al. (Proc. Natl. Acad. Sci. U.S.A., 80, pp. 4119-4123 [1983].

Where no end group is shown, it is not given here. [ ]: non-standard residue; d: D form. pGlu = O=C1CC[C@@H](C(=O)O)N1

For the substance “DRVYVHPSL [Angiotensin I, control peptide for specificity]”, the “inhibition of [125I]-Factor IX endothelial cell binding” value is given as “no inhibition”.
On to “PCA-Gly-Val-Asn-Glu-Glu-Gly-Phe-Phe-Ser-Ala-Arg ([pGlu]GVNEEGFFSAR) [fibrinopeptide B, control peptide for specificity]”, for which the “inhibition of [125I]-Factor IX endothelial cell binding” value was “no inhibition”.
